Laboratory results from ChEMBL document CHEMBL1201862, “PubChem BioAssay data set” (2004).
Calls of active or inactive are those of the source.

What was measured:
[1] = molecular target: Luciferin 4-monooxygenase (Photinus pyralis, UniProt P08659); experiment: inhibition of purified Photinus pyralis luciferase – biochemical, luminescence, dose response (AID 1891)
[2] = A cytotoxicity screen of small molecule inhibitors of the PhoP region in Salmonella typhi identified in the primary screen. [Related pubchem assays: 1850, 1864, 1985 ]; assay type: functional
[3] = Luminescence Cell-Based Dose Confirmation HTS to Identify Inhibitors of Platelet Dense Granule Release. [Related pubchem assays: 1663 (Primary HTS), 1678 (Summary of Project)]; assay type: functional
[4] = molecular target: T1, Short transient receptor potential channel 4 (Mus musculus, UniProt Q9QUQ5); experiment: block of DAMGO-driven TRPC4 calcium entry – cell-based, HEK293 TRPC4/mu-opioid, Fluo-4 calcium, dose response (AID 434942); assay type: functional;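 note: potency of inhibitors blocking the TRPC4 calcium response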
T1 sequence (Q9QUQ5 whole entry): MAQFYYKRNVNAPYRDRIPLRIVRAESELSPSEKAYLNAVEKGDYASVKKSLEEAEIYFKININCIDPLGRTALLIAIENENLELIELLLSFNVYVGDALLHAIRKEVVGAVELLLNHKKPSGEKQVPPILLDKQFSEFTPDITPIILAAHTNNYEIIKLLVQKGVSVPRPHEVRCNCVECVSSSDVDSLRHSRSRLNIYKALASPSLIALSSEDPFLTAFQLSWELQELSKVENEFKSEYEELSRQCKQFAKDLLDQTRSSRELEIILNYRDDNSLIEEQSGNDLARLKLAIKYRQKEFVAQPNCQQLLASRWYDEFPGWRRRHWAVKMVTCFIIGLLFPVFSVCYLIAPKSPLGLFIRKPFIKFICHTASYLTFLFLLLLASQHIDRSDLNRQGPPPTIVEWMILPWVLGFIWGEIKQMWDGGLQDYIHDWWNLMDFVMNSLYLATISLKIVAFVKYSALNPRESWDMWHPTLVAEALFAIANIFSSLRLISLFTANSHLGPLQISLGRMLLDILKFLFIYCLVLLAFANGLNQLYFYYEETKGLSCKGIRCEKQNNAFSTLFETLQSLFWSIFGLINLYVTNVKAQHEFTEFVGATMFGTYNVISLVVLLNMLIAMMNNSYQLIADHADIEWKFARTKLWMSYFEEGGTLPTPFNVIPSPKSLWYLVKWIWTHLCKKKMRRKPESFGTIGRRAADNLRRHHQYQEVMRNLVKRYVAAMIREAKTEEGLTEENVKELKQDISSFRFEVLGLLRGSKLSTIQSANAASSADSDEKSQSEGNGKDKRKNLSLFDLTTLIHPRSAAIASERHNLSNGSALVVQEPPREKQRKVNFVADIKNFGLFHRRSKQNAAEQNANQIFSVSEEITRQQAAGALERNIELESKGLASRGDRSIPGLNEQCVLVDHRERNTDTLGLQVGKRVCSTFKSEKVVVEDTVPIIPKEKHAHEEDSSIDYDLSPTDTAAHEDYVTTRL

[5] = molecular target: Peroxisome proliferator-activated receptor gamma/Nuclear receptor coactivator 1 (Homo sapiens, UniProt P37231); experiment: TR-FRET dose response biochemical High Throughput Screening assay for agonists of the steroid receptor coactivator 1 (SRC-1) recruitment by the peroxisome proliferator-activated receptor gamma (PPAR gamma): non-selective agonists. [Related pubchem assays (depositor defined):AID1300, AID1808, AID504735, AID631]; assay type: protein assay
[6] = molecular target: Peroxisome proliferator-activated receptor gamma/Nuclear receptor coactivator 2 (Homo sapiens, UniProt P37231); experiment: (§1) TR-FRET dose response biochemical High Throughput Screening assay for agonists of the steroid receptor coactivator 2 (SRC-2) recruitment by the peroxisome proliferator-activated receptor gamma (PPAR gamma): non-selective agonists. [Related pubchem assays: 1297, 1032 ]; assay type: functional
[7] = molecular target: Peroxisome proliferator-activated receptor gamma/Nuclear receptor coactivator 3 (Homo sapiens, UniProt P37231); experiment: as §1, with “3 (SRC-3)” for “2 (SRC-2)”, “1301 (Confirmation screen.), 1048 (Primary screen.)]” for “1297, 1032 ]”; assay type: functional
[8] = molecular target: T2, Heat shock factor protein 1 (Mus musculus, UniProt P38532); experiment: decrease of HSF1-responsive luciferase luminescence – cell-based, NIH3T3, dose retest, confirmation (AID 2382); assay type: functional;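 note: NIH3T3 fibroblasts with HSF1-driven luciferase reporter stressed by proteasome inhibitor MG132; luminescence from HSF1-driven luciferase expression after 8 hours of MG132 stress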
T2 sequence (P38532 whole entry): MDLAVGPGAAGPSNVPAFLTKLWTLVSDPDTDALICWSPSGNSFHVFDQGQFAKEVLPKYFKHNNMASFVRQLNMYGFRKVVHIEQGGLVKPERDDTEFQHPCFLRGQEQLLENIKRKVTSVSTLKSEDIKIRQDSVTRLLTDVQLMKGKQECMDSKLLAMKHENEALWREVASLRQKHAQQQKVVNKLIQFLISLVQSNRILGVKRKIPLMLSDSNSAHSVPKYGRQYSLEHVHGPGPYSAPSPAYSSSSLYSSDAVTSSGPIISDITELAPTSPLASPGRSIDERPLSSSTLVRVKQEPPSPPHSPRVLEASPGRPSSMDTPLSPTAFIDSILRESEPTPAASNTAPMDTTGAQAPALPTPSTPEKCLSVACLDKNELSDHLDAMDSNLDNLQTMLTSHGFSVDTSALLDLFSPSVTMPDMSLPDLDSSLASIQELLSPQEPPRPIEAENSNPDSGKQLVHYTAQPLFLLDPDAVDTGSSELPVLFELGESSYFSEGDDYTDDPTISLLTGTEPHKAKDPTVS

[9] = molecular target: T3, DNA repair protein RAD52 homolog (Homo sapiens, UniProt P43351); assay type: functional, biochemical
T3 sequence (P43351 whole entry): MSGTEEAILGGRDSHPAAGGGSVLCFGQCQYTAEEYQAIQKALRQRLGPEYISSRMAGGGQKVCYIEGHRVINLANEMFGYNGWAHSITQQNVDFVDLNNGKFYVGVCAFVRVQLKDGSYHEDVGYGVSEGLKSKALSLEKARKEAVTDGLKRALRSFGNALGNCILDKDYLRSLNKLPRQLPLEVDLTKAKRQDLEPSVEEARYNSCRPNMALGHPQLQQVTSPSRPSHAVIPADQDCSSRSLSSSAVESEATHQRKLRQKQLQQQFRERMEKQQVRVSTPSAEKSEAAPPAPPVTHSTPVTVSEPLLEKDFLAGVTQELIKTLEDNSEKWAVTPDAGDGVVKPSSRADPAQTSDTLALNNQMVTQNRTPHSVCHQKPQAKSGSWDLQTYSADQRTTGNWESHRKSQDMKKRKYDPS

[10] = molecular target: T4, DNA repair and recombination protein RAD54-like (Homo sapiens, UniProt Q92698); experiment: RAD54 Holliday junction migration blockers – biochemical, fluorescence, cherry-picked samples, dose series, confirmation (AID 651657); assay type: functional
T4 sequence (Q92698 whole entry): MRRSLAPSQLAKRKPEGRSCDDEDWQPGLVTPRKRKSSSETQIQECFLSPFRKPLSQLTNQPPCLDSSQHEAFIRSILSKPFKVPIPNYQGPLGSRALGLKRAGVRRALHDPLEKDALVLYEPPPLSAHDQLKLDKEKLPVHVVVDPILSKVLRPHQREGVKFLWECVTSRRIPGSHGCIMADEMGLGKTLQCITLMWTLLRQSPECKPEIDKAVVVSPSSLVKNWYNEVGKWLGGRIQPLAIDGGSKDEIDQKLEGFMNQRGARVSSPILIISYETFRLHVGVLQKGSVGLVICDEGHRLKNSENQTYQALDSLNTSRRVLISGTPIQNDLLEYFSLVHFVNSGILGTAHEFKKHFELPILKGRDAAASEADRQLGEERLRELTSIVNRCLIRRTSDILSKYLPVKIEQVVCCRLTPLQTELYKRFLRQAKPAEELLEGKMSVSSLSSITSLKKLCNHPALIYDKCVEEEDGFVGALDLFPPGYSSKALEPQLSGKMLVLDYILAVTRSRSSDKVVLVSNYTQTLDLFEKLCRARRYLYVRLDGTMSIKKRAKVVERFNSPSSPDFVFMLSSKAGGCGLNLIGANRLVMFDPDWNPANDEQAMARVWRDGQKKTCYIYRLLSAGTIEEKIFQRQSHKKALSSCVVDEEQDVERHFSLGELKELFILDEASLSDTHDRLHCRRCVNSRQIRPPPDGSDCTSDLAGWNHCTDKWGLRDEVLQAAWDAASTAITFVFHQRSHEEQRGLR

[11] = molecular target: T1, Short transient receptor potential channel 4; experiment: calcium entry via TRPC4 opening agents – cell-based, HEK293 TRPC4/mu-opioid, Fluo-4 calcium, dose response (AID 434937); assay type: functional
[12] = molecular target: DNA dC->dU-editing enzyme APOBEC-3G (Homo sapiens, UniProt Q9HC16); experiment: Dose Response confirmation of small molecule APOBEC3G DNA Deaminase Inhibitors via a fluorescence-based single-stranded DNA deaminase assay. [Related pubchem assays (depositor defined):AID493012, AID493028]; assay type: functional
[13] = NIH3T3 cell viability loss – ATP luminescence, mouse fibroblasts, counter-screen, dose response (AID 2010); assay type: functional, cell-based; conditions: NIH3T3;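 note: cells exposed to compound for about 90 hours before reading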
Cytochrome P450 2C19 = Cytochrome P450 2C19 (Homo sapiens, UniProt P33261); experiment: Cytochrome panel assay with activity outcomes. Panel member name: p450-cyp2c19 Compounds with AC50 equal or less than 10 uM are considered active; assay type: functional; conditions: read-out: AC50
[14] = Trypanosoma cruzi growth suppression in host cells – NIH3T3 host cells, beta-gal luminescence, confirmation (AID 2044); assay type: functional, cell-based;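 note: intracellular parasites grown in NIH/3T3 mouse fibroblasts as host cells; luminescent beta-galactosidase reporter signal from transgenic T. cruzi replicating inside host cells; inhibitors lower the luminescence signal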

Cytochrome P450 2C19, sequence (P33261 whole entry): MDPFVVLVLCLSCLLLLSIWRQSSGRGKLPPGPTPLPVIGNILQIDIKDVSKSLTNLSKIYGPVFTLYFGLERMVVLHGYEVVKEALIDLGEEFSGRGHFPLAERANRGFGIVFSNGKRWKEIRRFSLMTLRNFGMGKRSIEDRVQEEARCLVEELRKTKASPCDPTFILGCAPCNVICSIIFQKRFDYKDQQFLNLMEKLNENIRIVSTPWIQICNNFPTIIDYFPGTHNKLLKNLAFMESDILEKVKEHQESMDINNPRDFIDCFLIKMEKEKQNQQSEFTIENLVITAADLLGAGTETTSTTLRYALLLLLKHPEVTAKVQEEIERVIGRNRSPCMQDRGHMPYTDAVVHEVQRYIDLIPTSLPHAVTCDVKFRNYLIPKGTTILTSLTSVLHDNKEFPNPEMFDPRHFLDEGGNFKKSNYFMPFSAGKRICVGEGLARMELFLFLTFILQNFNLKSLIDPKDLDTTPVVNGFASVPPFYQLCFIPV
Luciferin 4-monooxygenase, sequence (P08659 whole entry): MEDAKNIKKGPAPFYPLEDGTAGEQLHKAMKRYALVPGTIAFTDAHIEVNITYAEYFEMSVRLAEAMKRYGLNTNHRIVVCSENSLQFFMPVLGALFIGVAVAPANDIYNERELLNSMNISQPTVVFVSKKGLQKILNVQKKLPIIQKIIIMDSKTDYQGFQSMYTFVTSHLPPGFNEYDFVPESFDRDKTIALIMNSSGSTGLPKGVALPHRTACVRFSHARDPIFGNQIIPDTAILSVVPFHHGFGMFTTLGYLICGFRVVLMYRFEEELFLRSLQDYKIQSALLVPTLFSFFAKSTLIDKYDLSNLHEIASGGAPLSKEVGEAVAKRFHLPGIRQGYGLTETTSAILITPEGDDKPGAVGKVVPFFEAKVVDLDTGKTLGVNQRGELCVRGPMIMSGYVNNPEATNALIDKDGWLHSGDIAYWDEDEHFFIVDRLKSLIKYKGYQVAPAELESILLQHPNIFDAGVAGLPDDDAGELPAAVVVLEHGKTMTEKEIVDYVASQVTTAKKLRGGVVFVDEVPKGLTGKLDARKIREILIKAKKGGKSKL
Peroxisome proliferator-activated receptor gamma/Nuclear receptor coactivator 3, sequence (P37231 whole entry): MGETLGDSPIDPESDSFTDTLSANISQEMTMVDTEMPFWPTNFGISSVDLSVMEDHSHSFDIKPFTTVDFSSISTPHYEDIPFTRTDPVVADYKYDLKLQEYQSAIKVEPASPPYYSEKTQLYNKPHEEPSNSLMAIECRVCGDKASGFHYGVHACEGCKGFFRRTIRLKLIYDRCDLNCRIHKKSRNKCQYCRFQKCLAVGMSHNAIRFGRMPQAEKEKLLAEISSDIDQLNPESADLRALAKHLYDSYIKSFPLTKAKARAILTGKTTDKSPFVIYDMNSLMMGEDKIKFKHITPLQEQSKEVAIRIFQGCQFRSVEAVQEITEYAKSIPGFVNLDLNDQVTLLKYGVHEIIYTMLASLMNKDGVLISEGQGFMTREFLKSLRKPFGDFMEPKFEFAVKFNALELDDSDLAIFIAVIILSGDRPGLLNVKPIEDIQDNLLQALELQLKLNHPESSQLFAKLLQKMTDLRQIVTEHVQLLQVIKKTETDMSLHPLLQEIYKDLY
Peroxisome proliferator-activated receptor gamma/Nuclear receptor coactivator 3, sequence (Q9Y6Q9 whole entry, further chain): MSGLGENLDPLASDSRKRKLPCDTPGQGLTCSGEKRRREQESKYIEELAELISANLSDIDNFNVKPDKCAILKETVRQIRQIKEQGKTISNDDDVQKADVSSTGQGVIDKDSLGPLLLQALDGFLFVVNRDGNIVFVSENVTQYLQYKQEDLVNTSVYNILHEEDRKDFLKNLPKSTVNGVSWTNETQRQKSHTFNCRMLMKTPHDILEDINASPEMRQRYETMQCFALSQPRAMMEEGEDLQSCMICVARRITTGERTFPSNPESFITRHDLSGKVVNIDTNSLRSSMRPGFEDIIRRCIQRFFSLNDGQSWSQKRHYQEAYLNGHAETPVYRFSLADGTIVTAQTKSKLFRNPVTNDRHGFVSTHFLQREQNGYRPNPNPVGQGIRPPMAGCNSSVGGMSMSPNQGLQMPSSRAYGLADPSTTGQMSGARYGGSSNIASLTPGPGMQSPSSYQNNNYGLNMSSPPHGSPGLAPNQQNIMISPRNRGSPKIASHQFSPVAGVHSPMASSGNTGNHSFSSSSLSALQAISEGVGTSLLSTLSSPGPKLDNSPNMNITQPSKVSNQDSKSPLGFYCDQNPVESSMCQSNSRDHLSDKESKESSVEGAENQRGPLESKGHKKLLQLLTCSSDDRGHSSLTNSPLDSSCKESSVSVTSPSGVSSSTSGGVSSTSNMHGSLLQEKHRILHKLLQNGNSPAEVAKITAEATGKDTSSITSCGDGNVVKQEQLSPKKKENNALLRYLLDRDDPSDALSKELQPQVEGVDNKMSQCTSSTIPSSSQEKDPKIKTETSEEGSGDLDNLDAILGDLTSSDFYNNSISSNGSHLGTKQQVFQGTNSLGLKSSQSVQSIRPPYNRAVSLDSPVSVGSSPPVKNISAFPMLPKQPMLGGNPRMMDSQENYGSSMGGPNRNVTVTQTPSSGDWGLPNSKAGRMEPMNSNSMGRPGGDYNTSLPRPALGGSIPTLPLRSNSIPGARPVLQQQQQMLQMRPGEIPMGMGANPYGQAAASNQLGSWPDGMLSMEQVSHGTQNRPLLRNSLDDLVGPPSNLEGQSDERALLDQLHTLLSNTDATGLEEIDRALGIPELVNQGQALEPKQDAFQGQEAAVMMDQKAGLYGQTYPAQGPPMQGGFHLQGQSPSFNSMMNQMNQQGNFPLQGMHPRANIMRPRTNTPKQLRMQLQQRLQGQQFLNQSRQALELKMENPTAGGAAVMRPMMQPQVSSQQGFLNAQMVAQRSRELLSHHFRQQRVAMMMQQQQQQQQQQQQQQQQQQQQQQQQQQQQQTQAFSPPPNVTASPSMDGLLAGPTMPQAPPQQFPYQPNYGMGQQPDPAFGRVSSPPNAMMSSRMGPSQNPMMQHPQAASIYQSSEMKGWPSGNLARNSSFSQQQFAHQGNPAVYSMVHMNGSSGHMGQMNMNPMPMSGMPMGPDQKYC
Peroxisome proliferator-activated receptor gamma/Nuclear receptor coactivator 1, sequence (P37231 whole entry): as the sequence (P37231 whole entry) above
Peroxisome proliferator-activated receptor gamma/Nuclear receptor coactivator 1, sequence (Q15788 whole entry, further chain): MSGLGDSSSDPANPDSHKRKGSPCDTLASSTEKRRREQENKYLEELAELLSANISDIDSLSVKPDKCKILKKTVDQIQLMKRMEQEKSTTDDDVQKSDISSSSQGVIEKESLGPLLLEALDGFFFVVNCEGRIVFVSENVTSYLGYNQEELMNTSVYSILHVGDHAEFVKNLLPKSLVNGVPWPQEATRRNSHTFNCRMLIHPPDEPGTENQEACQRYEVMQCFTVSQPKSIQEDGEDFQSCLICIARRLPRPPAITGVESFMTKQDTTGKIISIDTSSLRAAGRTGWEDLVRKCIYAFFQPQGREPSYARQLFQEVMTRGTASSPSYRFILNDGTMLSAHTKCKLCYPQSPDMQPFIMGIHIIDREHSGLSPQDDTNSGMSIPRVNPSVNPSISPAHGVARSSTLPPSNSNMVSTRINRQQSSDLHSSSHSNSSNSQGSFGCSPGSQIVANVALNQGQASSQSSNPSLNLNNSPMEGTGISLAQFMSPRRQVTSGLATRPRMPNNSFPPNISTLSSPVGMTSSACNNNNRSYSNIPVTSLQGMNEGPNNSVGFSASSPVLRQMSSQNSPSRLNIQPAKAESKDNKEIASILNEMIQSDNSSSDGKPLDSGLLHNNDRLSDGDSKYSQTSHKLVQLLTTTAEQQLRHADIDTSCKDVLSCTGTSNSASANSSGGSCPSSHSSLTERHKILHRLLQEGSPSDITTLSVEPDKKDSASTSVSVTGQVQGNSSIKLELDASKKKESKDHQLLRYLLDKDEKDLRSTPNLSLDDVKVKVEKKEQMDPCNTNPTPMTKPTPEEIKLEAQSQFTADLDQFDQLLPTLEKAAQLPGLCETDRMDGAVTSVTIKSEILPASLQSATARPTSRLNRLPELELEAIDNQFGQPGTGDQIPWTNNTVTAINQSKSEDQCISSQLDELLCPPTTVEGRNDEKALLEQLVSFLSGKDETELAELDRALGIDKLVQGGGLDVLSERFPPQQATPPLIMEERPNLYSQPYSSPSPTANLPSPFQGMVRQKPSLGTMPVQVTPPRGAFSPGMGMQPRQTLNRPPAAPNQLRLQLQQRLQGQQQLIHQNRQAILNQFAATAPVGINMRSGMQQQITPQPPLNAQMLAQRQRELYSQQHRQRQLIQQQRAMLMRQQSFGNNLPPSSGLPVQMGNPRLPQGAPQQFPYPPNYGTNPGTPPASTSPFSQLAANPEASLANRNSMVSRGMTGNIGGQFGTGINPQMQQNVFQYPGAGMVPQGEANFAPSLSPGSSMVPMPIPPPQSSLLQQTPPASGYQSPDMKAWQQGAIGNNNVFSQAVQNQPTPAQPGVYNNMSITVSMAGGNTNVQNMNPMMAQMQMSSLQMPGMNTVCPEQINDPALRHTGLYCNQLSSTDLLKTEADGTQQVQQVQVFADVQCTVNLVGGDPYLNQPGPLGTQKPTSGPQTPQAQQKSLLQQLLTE

Question: With C/C=C/c1ccc(OCc2cc(=O)n3cc(C)ccc3n2)c(OC)c1 as the compound, how does the EC50 [1] read?
Answer: > 112 µM (not active)

Question: What about the EC50 [2] of the same compound?
Answer: > 50 µM (active)

Question: What about the EC50 [3] of the same compound?
Answer: 58.2 µM (active)

Question: With CCOc1ccccc1-n1c(SCC(=O)Nc2nccs2)nnc1-c1ccoc1C as the compound, how does the EC50 [4] read?
Answer: 1.5 µM (active)

Question: For Cc1onc(-c2c(F)cccc2Cl)c1C(=O)Nc1nnc(-c2ccccc2)s1, which EC50 [5] is on record?
Answer: 446 µM (inactive)

Question: And the EC50 [6]?
Answer: 29.8 µM (not active)

Question: And the EC50 [7]?
Answer: > 79.4 µM (not active)

Question: For COc1ccccc1Nc1nc(NCCCN(C)C)nc(N)c1[N+](=O)[O-], which EC50 [8] is on record?
Answer: > 195 µM (not active)

Question: And the AC50 [9]?
Answer: 5.59 µM (active)

Question: And the AC50 [10]?
Answer: 11.1 µM (active)

Question: Which EC50 [11] does the source give for CN(C)CCNC(=O)c1c(NC(=O)c2ccccc2)sc2c1CCCC2 here?
Answer: 5.96 µM (active)

Question: What about the AC50 [10] of the same compound?
Answer: 56.4 µM (active)

Question: Which IC50 [12] does the source give for CCOc1ccc(C(=S)NC2CCCCC2)cc1OCC here?
Answer: 55.7 µM (active)

Question: Which results are given for CCN(CC)Cc1cc(Nc2ccnc3cc(Cl)ccc23)ccc1O?
Answer: AC50 [9]: 10 µM (active); AC50 [10]: 10.3 µM (active)

Question: With O=C(CSc1nc(=O)n(CCN2CCOCC2)c2c1CCC2)Nc1ccc(OC(F)(F)F)cc1 as the compound, how does the EC50 [4] read?
Answer: 7.5 µM (active)

Question: With Cc1ccc(S(=O)(=O)NCCC(=O)NCC(c2ccco2)N2CCCCC2)cc1C (configuration not stated) as the compound, how does the EC50 [11] read?
Answer: 0.944 µM (active)

Question: And the EC50 [4]?
Answer: 0.168 µM (active)

Question: Which EC50 [13] does the source give for CCOC(=O)N/N=C\c1ccc([N+](=O)[O-])o1 here?
Answer: > 30 µM (not active)

Question: What about the AC50 (Cytochrome P450 2C19) of the same compound?
Answer: 25.1 µM (inconclusive)

Question: What about the EC50 [14] of the same compound?
Answer: 0.542 µM (active)

Question: What about the EC50 [2] of the same compound?
Answer: > 50 µM (active)
